From patent EP3263567A1, “CARBOXAMIDE-SUBSTITUTED PYRAZOLES AND TRI(HETERO)ARYL-PYRAZOLES FOR USE IN METHODS OF TREATING AND / OR PREVENTING CARDIOVASCULAR DISEASES AND / OR COMORBIDITIES THEREOF” (AiCuris Anti-infective Cures GmbH, priority 2016, dated 2018)
Values belong to the compound of their own block, whether it stands above or below them.

Tests used:
human HCN4 currents = biological target: T1, human HCN4 currents (Homo sapiens, UniProt Q9Y3Q4); test: Whole-cell patch-clamp, HCN4 steady state currents in transiently transfected CHO cells; format: cell-based; details: for IC50: CHO cells transiently expressing HCN4, steady state current at -120 mV, n=3, read-out: IC50 (inhibition of HCN4 currents); for inhibition of the HCN4 current (result in words): tested first at 10 µM
T1 construct: CHO cells transiently expressing the HCN4 channel; expressed in transfected cells; host or cells: CHO (ATCC CCL-61), transiently transfected
T1 sequence (Q9Y3Q4 1-1203): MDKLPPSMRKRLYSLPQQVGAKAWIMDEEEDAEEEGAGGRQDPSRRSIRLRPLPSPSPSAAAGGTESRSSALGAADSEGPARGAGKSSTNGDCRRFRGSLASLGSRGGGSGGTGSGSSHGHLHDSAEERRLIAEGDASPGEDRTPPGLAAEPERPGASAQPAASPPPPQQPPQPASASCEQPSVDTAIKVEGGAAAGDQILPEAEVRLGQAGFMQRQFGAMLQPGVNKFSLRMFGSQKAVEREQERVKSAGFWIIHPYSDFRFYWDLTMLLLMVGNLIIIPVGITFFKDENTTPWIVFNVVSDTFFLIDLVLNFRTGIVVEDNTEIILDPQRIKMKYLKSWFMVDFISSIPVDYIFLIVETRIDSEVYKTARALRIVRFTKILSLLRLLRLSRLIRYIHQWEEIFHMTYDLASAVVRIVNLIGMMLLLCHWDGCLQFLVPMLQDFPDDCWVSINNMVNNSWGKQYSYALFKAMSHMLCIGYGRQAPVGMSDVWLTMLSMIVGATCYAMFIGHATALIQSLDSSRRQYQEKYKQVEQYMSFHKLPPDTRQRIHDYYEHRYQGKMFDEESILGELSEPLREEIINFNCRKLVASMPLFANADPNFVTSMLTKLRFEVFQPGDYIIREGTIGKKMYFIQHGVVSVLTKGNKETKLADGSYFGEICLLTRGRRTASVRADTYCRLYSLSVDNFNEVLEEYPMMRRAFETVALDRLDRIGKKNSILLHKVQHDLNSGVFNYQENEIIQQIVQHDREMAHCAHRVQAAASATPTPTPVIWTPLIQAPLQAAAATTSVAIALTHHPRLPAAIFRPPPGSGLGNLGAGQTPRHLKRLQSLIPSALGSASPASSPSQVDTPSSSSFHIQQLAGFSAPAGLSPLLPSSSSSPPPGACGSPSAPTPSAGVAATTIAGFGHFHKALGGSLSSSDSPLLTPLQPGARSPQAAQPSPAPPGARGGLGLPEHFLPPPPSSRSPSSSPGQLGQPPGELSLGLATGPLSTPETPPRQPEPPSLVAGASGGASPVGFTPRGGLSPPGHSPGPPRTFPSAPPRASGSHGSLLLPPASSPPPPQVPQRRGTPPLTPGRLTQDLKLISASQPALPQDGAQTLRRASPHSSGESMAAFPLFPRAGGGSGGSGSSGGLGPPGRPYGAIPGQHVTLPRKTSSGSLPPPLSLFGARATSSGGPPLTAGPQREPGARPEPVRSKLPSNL
Text: The following six compounds in accordance with the invention: • Compound A: [drawing 81] i.e. 4-[5-[3-Chloro-5-(trifluoromethoxy) phenyl]-1-(pyridin-3-yl)-1H-pyrazol-3-yl]-5,6-dihydro-7H-pyrrolo[3,4-d]pyrimidin-7-one, • Compound B: [drawing 82] i.e. 4-[5-[3-Chloro-5-(trifluoromethoxy) phenyl]-1-(pyridin-3-yl)-1H-pyrazol-3-yl]-2,3-dihydro-1H-pyrrolo[3,4-c] pyridin-1-one, • Compound C: [drawing 83] i.e. 4-[5-[3-Chloro-5-(trifluoromethoxy) phenyl]-1-(pyridin-3-yl)-1H-pyrazol-3-yl]-5,6-dihydro-2-methyl-7H-pyrrolo[3, 4-d] pyrimidin-7-one, • Compound D: [drawing 84] i.e. 3-Amino-4-[5-[3-chloro-5-(trifluoromethoxy) phenyl]-1-(pyridin-3-yl)-1H-pyrazol-3-yl-carbonyl]-1,5-dihydro-2H-pyrrol-2-one, • Compound E: [drawing 85] i.e. 1-[[5-[3-Chloro-5-(trifluoromethoxy) phenyl]-1-(pyridin-3-yl)-1H-pyrazol-3-yl]carbonyl]-imidazolidin-4-one, • Compound F: [drawing 86] i.e. 4-[5-[3-Chloro-5-(trifluoromethoxy) phenyl]-1-(3-cyano-4-fluoro-phenyl)-1H-pyrazol-3-yl]-5,6-dihydro-7H-pyrrolo[3,4-d]pyrimidin-7-one, were tested on their effects on human HCN4 currents recorded from transiently transfected CHO cells, in direct comparison to the reference compounds described below: • Ivabradine: [drawing 87] i.e. ((S)-3-{3-[([3,4-Dimethoxy-bicyclo [4.2.0]octa-1,3,5-trien-7-yl]methyl)methylamino]propyl}-1,3,4,5-tetrahydro-7,8-dimethoxy-2H-3-benzazepin-2-on), • Compound X: [drawing 88] i.e. 1-[[1-(3-Chloro-4-fluorophenyl)-5-(3-chloro-5-fluorophenyl)-1 H-pyrazol-3-yl]carbonyl]-imidazolidin-4-one, • Compound Y: [drawing 89] i.e. N-(2-Amino-2-oxoethyl)-1-(3-chloro-4-fluorophenyl)-5-(3-chloro-5-fluorophenyl)-1H-pyrazole-3-carboxamide.
The pyrazole compounds X and Y as depicted above, and having structural similarities to the compounds of general formula (I) of the invention, were also tested to investigate whether the pure If current inhibitory effect of the compounds of the invention also extend to structurally closely related compounds.
Dependent on their solubility in the assay buffer, the compounds were tested first at one concentration of 10 µM (compound A, compound Y, compound X, compound B, compound E, compound F and ivabradine) or 1 µM for (compound C and D). If the current blocking of HCN4 at this concentration was higher than 50% the compounds were tested again at five concentrations of a half-logarithmic dilution series starting with either 10 µM or 1 µM as mentioned above (meaning 0.1 µM, 0.3 µM, 1 µM, 3 µM, and 10 µM or 0.01 µM, 0.03 µM 0.1 µM, 0.3 µM and 1 µM).
Test system: CHO cells transiently expressing the HCN4 channel; NCBI Reference Sequence: NP005468.1 (HCN4 channel); Source CHO: ATCC, CCL-61 LGC Standards GmbH, Wesel, Germany were used.
In 35 mm culture dishes CHO cells were seeded at a density allowing single cells to be recorded on the dish holder of the microscope and continuously perfused (at approximately 1 mL/min) with the bath solution described above. All solutions applied to cells including the pipette solution were maintained at room temperature (19 °C - 30 °C). After formation of a Gigaohm seal between the patch electrodes and individual cells (pipette resistance range: 2.0 MΩ - 7.0 MΩ; seal resistance range: > 1 GΩ) the cell membrane across the pipette tip was ruptured to assure electrical access to the cell interior (whole-cell patch-configuration). As soon as a stable seal was established, steady state currents were measured upon the hyperpolarization to -120 mV (2000 ms) from a holding potential of -40 mV. This voltage protocol (as shown in the scheme below) did run 5 times for control conditions and at least ten times for each test concentration. Pulse intervals were 20 s (0.05 Hz). If current amplitude was judged to be too low for measurement, another cell was recorded.
Once control recordings have been accomplished, cells were continuously perfused with bath solution containing the tested compounds as detailed above, 0.1 % DMSO or 100 µM ZD7288. […]

HCN4 = biological target: T2, HCN4 (Homo sapiens, UniProt Q9Y3Q4); details: literature value, Stieber et al. (2006) Mol Pharmacol 69, 1328-1337; read-out: IC50 mean (block of HCN4 channels); cited from earlier work
T2 sequence (Q9Y3Q4 1-1203): T1 sequence (Q9Y3Q4 1-1203)

in vivo = details: dog, po, 30 mg/kg
Procedure: (§1) A single oral dose of 30 or 100 mg/kg was applied to dogs. Pharmacokinetic parameters were assessed and compared.
Male and female Beagle dogs.
(§2) Plasma concentrations were obtained by LC-MS/MS measurements.

[1] = Pharmacokinetics after single oral administration of formulations to dogs; details: 30 mg/kg single oral dose
Procedure: as §1
Male and female Beagle dogs.
as §2

block of HCN4 currents at a single concentration (human HCN4 currents; 0.1 µM): almost completely
IC50 (human HCN4 currents): 0.03 to 0.58 µM
Compound: O=C1NCc2c1ccnc2-c1cc(-c2cc(Cl)cc(OC(F)(F)F)c2)n(-c2cccnc2)n1 [Compound B, 4-[5-[3-Chloro-5-(trifluoromethoxy)phenyl]-1-(pyridin-3-yl)-1H-pyrazol-3-yl]-2,3-dihydro-1H-pyrrolo[3,4-c] pyridin-1-one]

IC50 (human HCN4 currents): 0.03 to 0.58 µM
Compound: Cc1nc2c(c(-c3cc(-c4cc(Cl)cc(OC(F)(F)F)c4)n(-c4cccnc4)n3)n1)CNC2=O [Compound C, 4-[5-[3-Chloro-5-(trifluoromethoxy)phenyl]-1-(pyridin-3-yl)-1H-pyrazol-3-yl]-5,6-dihydro-2-methyl-7H-pyrrolo[3,4-d] pyrimidin-7-one]

IC50 (human HCN4 currents): 0.03 to 0.58 µM
Compound: NC1=C(C(=O)c2cc(-c3cc(Cl)cc(OC(F)(F)F)c3)n(-c3cccnc3)n2)CNC1=O [Compound D, 3-Amino-4-[5-[3-chloro-5-(trifluoromethoxy)phenyl]-1-(pyridin-3-yl)-1H-pyrazol-3-yl-carbonyl]-1,5-dihydro-2H-pyrrol-2-one]

IC50 (human HCN4 currents): 0.03 to 0.58 µM
Compound: O=C1CN(C(=O)c2cc(-c3cc(Cl)cc(OC(F)(F)F)c3)n(-c3cccnc3)n2)CN1 [Compound E, 1-[[5-[3-Chloro-5-(trifluoromethoxy)phenyl]-1-(pyridin-3-yl)-1H-pyrazol-3-yl]carbonyl]-imidazolidin-4-one]

IC50 (human HCN4 currents): 0.03 to 0.58 µM
Compound: N#Cc1cc(-n2nc(-c3ncnc4c3CNC4=O)cc2-c2cc(Cl)cc(OC(F)(F)F)c2)ccc1F [Compound F, 4-[5-[3-Chloro-5-(trifluoromethoxy)phenyl]-1-(3-cyano-4-fluoro-phenyl)-1H-pyrazol-3-yl]-5,6-dihydro-7H-pyrrolo[3,4-d]pyrimidin-7-one]

The remaining lines, values behind:

Compound: O=C1CN(C(=O)c2cc(-c3cc(F)cc(Cl)c3)n(-c3ccc(F)c(Cl)c3)n2)CN1 [Compound X, 1-[[1-(3-Chloro-4-fluorophenyl)-5-(3-chloro-5-fluorophenyl)-1 H-pyrazol-3-yl]carbonyl]-imidazolidin-4-one, reference compound]
inhibition of the HCN4 current (result in words) (human HCN4 currents): not identified as inhibitors of the HCN4 current

Compound: NC(=O)CNC(=O)c1cc(-c2cc(F)cc(Cl)c2)n(-c2ccc(F)c(Cl)c2)n1 [Compound Y, N-(2-Amino-2-oxoethyl)-1-(3-chloro-4-fluorophenyl)-5-(3-chloro-5-fluorophenyl)-1H-pyrazole-3-carboxamide, reference compound]
inhibition of the HCN4 current (result in words) (human HCN4 currents): not identified as inhibitors of the HCN4 current

Compound: COc1cc2c(cc1OC)CC(=O)N(CCCN(C)C[C@H]1Cc3cc(OC)c(OC)cc31)CC2 [Ivabradine, (S)-3-{3-[([3,4-Dimethoxy-bicyclo [4.2.0]octa-1,3,5-trien-7-yl]methyl)methylamino]propyl}-1,3,4,5-tetrahydro-7,8-dimethoxy-2H-3-benzazepin-2-on, reference compound]
IC50 (HCN4): ~2.15 µM
IC50 (human HCN4 currents): 4.46 µM

Compound: CCN(c1ccccc1)c1cc(NC)[n+](C)c(C)n1 [ZD7288, reference compound]
relative steady state current (HCN4) (human HCN4 currents; 100 µM, mean ± SEM of n=3 cells): 12.89 ± 1.19%

Compound: O=C1NCc2c1ncnc2-c1cc(-c2cc(Cl)cc(OC(F)(F)F)c2)n(-c2cccnc2)n1 [ethane sulfonate]
AUC(0-inf) (in vivo): 218 µg·h/mL
vomiting [1]: two to three out of four animals
